Columns and labels:
[1] = Cytotoxicity in HepG2 cells, Resazurin viability assay; settings: human, HepG2 cells
HBV = test: Anti-HBV activity, HepG2.117 inducible HBV producing cell line (Tet-off), intracellular HBV DNA by realtime PCR; assay type: cell-based; settings: Hepatitis B virus, 72 h; HepG2.117 cells, 3 days of treatment, intracellular HBV DNA; read-out: HepG2 117 EC50

Cc1c(C(=O)C(=O)NC(C)(C)C)cc(C(=O)Nc2ccc(F)c(C#N)c2)n1C [Compound 59, 4-[2-(tert-butylamino)-2-oxo-acetyl]-N-(3-cyano-4-fluoro-phenyl)-1,5-dimethyl-pyrrole-2-carboxamide]
CC50 at 4 days [1]: > 25000 nM | EC50 (HBV): 4 nM

Cc1c(C(=O)C(=O)NC(C)C)cc(C(=O)Nc2ccc(F)c(C#N)c2)n1C [Compound 52, N-(3-cyano-4-fluoro-phenyl)-4-[2-(isopropylamino)-2-oxo-acetyl]-1,5-dimethyl-pyrrole-2-carboxamide]
CC50 at 4 days [1]: > 25000 nM | EC50 (HBV): 67 nM

C[C@H](NC(=O)C(=O)c1cc(C(=O)Nc2ccc(F)c(C#N)c2)n(C)c1)C(F)(F)F [Compound 51, N-(3-cyano-4-fluoro-phenyl)-1-methyl-4-[2-oxo-2-[[(1S)-2,2,2-trifluoro-1-methyl-ethyl]amino]acetyl]pyrrole-2-carboxamide]
CC50 at 4 days [1]: > 25000 nM | EC50 (HBV): 42 nM

C[C@@H](NC(=O)C(=O)c1c(F)c(C(=O)Nc2ccc(F)c(C#N)c2)n(C)c1Cl)C(F)(F)F [Compound 91, 5-chloro-N-(3-cyano-4-fluoro-phenyl)-3-fluoro-1-methyl-4-[2-oxo-2-[[(1R)-2,2,2-trifluoro-1-methyl-ethyl]amino]acetyl]pyrrole-2-carboxamide]
CC50 at 4 days [1]: > 25000 nM | EC50 (HBV): 300 nM

CC[C@@H](NC(=O)C(=O)c1cn(C)c(C(=O)Nc2ccc(F)c(C#N)c2)c1Cl)C(F)(F)F [Compound 38, 3-chloro-N-(3-cyano-4-fluoro-phenyl)-1-methyl-4-[2-oxo-2-[[(1R)-1-(trifluoromethyl)propyl]amino]acetyl]pyrrole-2-carboxamide]
CC50 at 4 days [1]: > 25000 nM | EC50 (HBV): 15 nM

Cc1c(C(=O)C(=O)NC2(C)CC(F)(F)C2)c(F)c(C(=O)Nc2ccc(F)c(C#N)c2)n1C [Compound 37, N-(3-cyano-4-fluoro-phenyl)-4-[2-[(3,3-difluoro-1-methyl-cyclobutyl)-amino]-2-oxo-acetyl]-3-fluoro-1,5-dimethyl-pyrrole-2-carboxamide]
CC50 at 4 days [1]: > 25000 nM | EC50 (HBV): 2 nM

Cc1c(C(=O)C(=O)NC2(CO)COC2)cc(C(=O)Nc2ccc(F)c(C#N)c2)n1C [Compound 71, N-(3-cyano-4-fluoro-phenyl)-4-[2-[[3-(hydroxymethyl)oxetan-3-yl]amino]-2-oxo-acetyl]-1,5-dimethyl-pyrrole-2-carboxamide]
CC50 at 4 days [1]: > 25000 nM | EC50 (HBV): 24 nM

C[C@@H](NC(=O)C(=O)c1cc(C(=O)Nc2ccc(F)c(C#N)c2)n(C)c1)C(F)(F)F [Compound 64, N-(3-cyano-4-fluoro-phenyl)-1-methyl-4-[2-oxo-2-[[(1R)-2,2,2-trifluoro-1-methyl-ethyl]amino]acetyl]pyrrole-2-carboxamide]
CC50 at 4 days [1]: > 25000 nM | EC50 (HBV): 66 nM

Cc1c(C(=O)C(=O)NC(CCO)C2CC2)cc(C(=O)Nc2ccc(F)c(C#N)c2)n1C (stereo not shown) [Compound 74, N-(3-cyano-4-fluoro-phenyl)-4-[2-[(1-cyclopropyl-3-hydroxy-propyl)-amino]-2-oxo-acetyl]-1,5-dimethyl-pyrrole-2-carboxamide]
CC50 at 4 days [1]: > 25000 nM | EC50 (HBV): 15 nM

Cc1c(C(=O)C(=O)N[C@H]2CCCC[C@@H]2O)cc(C(=O)Nc2ccc(F)c(C#N)c2)n1C [Compound 67, N-(3-cyano-4-fluoro-phenyl)-4-[2-[[(1S,2S)-2-hydroxycyclohexyl]amino]-2-oxo-acetyl]-1,5-dimethyl-pyrrole-2-carboxamide]
CC50 at 4 days [1]: > 25000 nM | EC50 (HBV): 94 nM

CCCC[C@H](CO)NC(=O)C(=O)c1cc(C(=O)Nc2ccc(F)c(C#N)c2)n(C)c1C [Compound 75, N-(3-cyano-4-fluoro-phenyl)-4-[2-[[(1R)-1-(hydroxymethyl)pentyl]amino]-2-oxo-acetyl]-1,5-dimethyl-pyrrole-2-carboxamide]
CC50 at 4 days [1]: > 25000 nM | EC50 (HBV): 14 nM
